Assays:
complex II = biological target: T1, complex II (Rattus norvegicus, UniProt P21913+Q641Z9+Q6PCT8+Q920L2); conditions: rat PD model; Jiang X et al. 2016; cited from earlier work
T1 construct: host or cells: rat PD model

primary skin fibroblasts = conditions: uncoupler as positive control (50 μM per method), 30 minutes
Method: Primary skin fibroblasts (10,000 cells per well) were seeded into Cell Carrier Ultra 96-well plates. The next day, fibroblast medium was removed and replaced by FBS-deprived DMEM containing 100 nM Tetramethylrhodamine, Ethyl Ester, Perchlorate (TMRE), a fluorescent dye that specifically accumulates in active, polarized mitochondria, or vehicle only (DMSO). The mitochondrial OXPHOS (OXPHOS-mito) uncoupler carbonyl cyanide m-chlorophenyl hydrazone (CCCP) was used—at the concentration of 50 μM—as a positive control of TMRE staining. Nuclei were stained with 1 μg/ml Hoechst 33342. Cells were incubated in the dark at 37° C. for 30 minutes before proceeding with high-throughput automated confocal microscopy analysis. Z-stack images were acquired at 20× magnification using the CellVoyager CV8000 High-Content Screening System.
An in-house Matlab image processing pipeline was used to quantify TMRE signal. The mitochondria channel was sum-projected on the x-y plane and preprocessed using a DoG filter of 33 pixel side-length, and sigmas set to 1 and 1.5 pixels, prior to thresholding (>10). Connected components with less than 6 pixels were removed from mitochondrial analysis. Total mitochondrial TMRE fluorescence intensity per field was normalized to nuclear area. […] Nine fields per well and at least two wells per condition were assessed for each of the three independent biological replicates.

[1] = tested on: mitochondiral complex I, II and IV; conditions: Kumar M et al. 2020; worded as 'proposed'; cited from earlier work
Complex I = conditions: rat model; Amarsanaa K et al. 2021; cited from earlier work

T1 sequence (Q920L2 35-656): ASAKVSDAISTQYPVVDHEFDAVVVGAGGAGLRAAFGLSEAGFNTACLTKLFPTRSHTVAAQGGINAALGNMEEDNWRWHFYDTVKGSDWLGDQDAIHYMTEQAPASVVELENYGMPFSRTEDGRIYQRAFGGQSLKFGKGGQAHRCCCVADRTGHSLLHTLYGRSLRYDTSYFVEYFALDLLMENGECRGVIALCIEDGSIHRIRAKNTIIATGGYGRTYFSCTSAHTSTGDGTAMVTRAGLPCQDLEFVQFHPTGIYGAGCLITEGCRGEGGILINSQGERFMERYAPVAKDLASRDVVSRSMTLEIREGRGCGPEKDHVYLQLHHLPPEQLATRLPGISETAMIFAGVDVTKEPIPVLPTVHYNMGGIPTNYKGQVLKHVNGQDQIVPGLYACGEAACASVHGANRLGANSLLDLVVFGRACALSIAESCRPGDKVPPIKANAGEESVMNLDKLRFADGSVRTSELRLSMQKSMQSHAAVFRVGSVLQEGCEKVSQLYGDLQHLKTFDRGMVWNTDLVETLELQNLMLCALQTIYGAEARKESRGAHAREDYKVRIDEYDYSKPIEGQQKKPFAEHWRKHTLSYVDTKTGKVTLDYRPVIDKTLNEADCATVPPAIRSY
T1 sequence (P21913 31-282): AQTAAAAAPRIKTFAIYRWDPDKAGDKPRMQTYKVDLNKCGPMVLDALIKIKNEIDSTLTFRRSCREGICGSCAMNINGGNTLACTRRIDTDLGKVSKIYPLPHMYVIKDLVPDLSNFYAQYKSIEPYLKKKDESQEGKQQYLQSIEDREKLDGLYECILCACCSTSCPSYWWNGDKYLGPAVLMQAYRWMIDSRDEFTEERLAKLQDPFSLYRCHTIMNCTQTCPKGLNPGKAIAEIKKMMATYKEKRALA
T1 sequence (Q641Z9 1-169): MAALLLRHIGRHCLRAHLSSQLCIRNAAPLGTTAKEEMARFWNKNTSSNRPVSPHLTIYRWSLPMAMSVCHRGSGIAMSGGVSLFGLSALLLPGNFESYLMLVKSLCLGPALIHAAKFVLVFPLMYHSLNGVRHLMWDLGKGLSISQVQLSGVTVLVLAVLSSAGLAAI
T1 sequence (Q6PCT8 57-159): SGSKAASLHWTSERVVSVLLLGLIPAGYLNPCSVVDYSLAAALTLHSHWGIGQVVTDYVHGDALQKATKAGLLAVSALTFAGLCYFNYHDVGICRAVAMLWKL

SMILES: COc1ccc(Cn2cc(-c3cc(C(F)(F)F)nc(S(C)(=O)=O)n3)ccc2=O)cc1OC [Compound A, 1-(3,4-dimethoxybenzyl)-5-(2-(methylsulfonyl)-6-(trifluoromethyl)pyrimidin-4-yl) pyridin-2 (1H)]
- dopaminergic neurons' death (complex II): preventing dopaminergic neurons' death

SMILES: N#CC(C#N)=NNc1ccc(OC(F)(F)F)cc1 [FCCP, carbonyl cyanide p-trifluoromethoxyphenyl hydrazone]
- TMRE fluorescence (mitochondrial membrane potential, Δψm) (primary skin fibroblasts): robust reduction of TMRE fluorescence

SMILES: [Na+].[SH-] [NaHS]
- complex I, II and IV mediated oxygen consumption rate [1]: increasing mitochondiral complex I, II and IV mediated oxygen consumption rate

SMILES: COc1ccc(-c2cc(=O)c3c(OC)c(OC)c(OC)c(OC)c3o2)cc1OC [Nobiletin, 5,6,7,8,3′,4′-hexamethoxyflavone]
- activity of complex I (Complex I): restore activity of complex I

From patent publication US20250210201A1 (priority 2022, published 2025)
